Assay results reported in ChEMBL document CHEMBL3608228, “Bisacremines A-D, Dimeric Acremines Produced by a Soil-Derived Acremonium persicinum Strain” (J Nat Prod, 2015).
The source made the active and inactive calls. The calls are words filed in the database; no cut-off is given here.

Experiments:
HeLa = assay: Cytotoxicity against human HeLa cells assessed as cell growth inhibition after 72 hrs by MTT assay; format: functional, cell-based
Staphylococcus aureus = assay: Antibacterial activity against Staphylococcus aureus; format: functional, organism-based
HepG2 = assay: Cytotoxicity against human HepG2 cells assessed as cell growth inhibition after 72 hrs by MTT assay; format: functional, cell-based; conditions: HepG2, 72 h
A549 = assay: Cytotoxicity against human A549 cells assessed as cell growth inhibition after 72 hrs by MTT assay; format: functional, cell-based; conditions: A549, 72 h

Row | Structure (SMILES) | IC50 (HeLa) [µM] | Activity (Staphylococcus aureus) | IC50 (HepG2) [µM] | IC50 (A549) [µM]
1 | Cc1ccc(/C=C/[C@]2(C)CC[C@](C)(/C=C/C3=C[C@H](O)[C@](C)(O)C[C@@H]3O)O2)cc1 | 46.1 | inactive | > 50 | > 50
2 | Cc1ccc(/C=C/[C@@]2(C)CC[C@@](C)(/C=C/C3=C[C@H](O)[C@](C)(O)C[C@@H]3O)O2)cc1 | 31.1 | inactive | > 50 | > 50
3 | Cc1ccc(/C=C/[C@@]2(C)CC[C@](C)(/C=C/C3=C[C@H](O)[C@](C)(O)C[C@@H]3O)O2)cc1 | 9.3 | inactive | 31.1 | 41.3
4 | Cc1ccc(/C=C/[C@]2(C)CC[C@@](C)(/C=C/C3=C[C@H](O)[C@](C)(O)C[C@@H]3O)O2)cc1 | 10.7 | inactive | > 50 | > 50
